Results: patent US20240158413A1, “FUSED POLYCYCLIC SUBSTITUTED 5-CARBOXYLIC ACID THIENOPYRIMIDINE DIONE COMPOUND AND USE THEREOF” (SOTER BIOPHARMA PTE. LTD., priority 2021, published 2024)

How the values were obtained:
[1] = molecular target: human gonadotropin-releasing hormone receptor (Homo sapiens (Human), UniProt P30968); assay: FLIPR calcium flow assay of inhibitory activity on gonadotropin-releasing hormone receptor in GnRH/HEK293 cells; assay type: cell-based; settings: Ca2+ flow, agonist Leuprolide acetate, read-out: IC50 on inhibiting the activity of human gonadotropin-releasing hormone receptor
Protocol: Objective of assay: to detect the inhibitory activity of assay compounds on gonadotropin-releasing hormone receptor at the cellular level using FLIPR detection technology.
GnRH/HEK293 (human embryonic kidney cell 293) cultured cells in the logarithmic growth phase were washed with DPBS (Dulbecco's phosphate buffered saline) buffer, and an appropriate amount of 0.05% EDTA (ethylenediaminetetraacetic acid)-trypsin was added. The cells were placed in a carbon dioxide incubator at 37° C. for digestion for 1-2 minutes, and then removed from the incubator. A medium was added to the cells to terminate the digestion. Cells were dispersed by repeated pipetting and harvested by centrifugation. […]
On the next day, 20 μL, of 2×Fluo-4Direct™ buffer was added to each well, and the plate was incubated in a 5% CO2, 37° C. incubator for 50 minutes. […] The fluorescence signal was read. Then 10 μL of the reference compound as an agonist was added, and the fluorescent signal was read. EC50 was calculated, and the agonist with a concentration of 6×EC50 was prepared.
2 mM assay compounds and an appropriate concentration of reference compound were serially diluted 4-fold to 10 concentrations in ECHO, and 900 nL of that was transferred to a compound plate. […] The fluorescent signal was read. Then 10 μL of agonist with a concentration of 6×EC50 was added to the cell plate and the fluorescent signal was read. […]

[2] = tested on: endometriotic lesion in mice; assay: In vivo efficacy evaluation in a mouse model of endometriosis
Excerpt: Objective of assay: To evaluate the efficacy of the compound of the present disclosure in a mouse model of endometriosis.
Animal estrous cycle detection in 8-week-old C57BL6/J female mice: Through vaginal smear observation, mice that met the specific estrous cycle on the day of the assay were selected according to the actual smear results because the entire estrous cycle was about 4 days. Modeling: The uterine horns of donor mice in an estrous cycle were excised, and opened longitudinally. The excised biopsies were cut to a size of 2×2 mm. Recipient mice were anesthetized with isoflurane gas, and a 1 cm incision was made along the midline to expose the abdominal cavity. Endometriotic mice: four uterine fragments of donors were sutured to the peritoneal wall of mice in an estrous cycle; sham-operated mice: abdominal fat fragments of similar size were sutured. The grafted tissue as well as the abdominal muscle and skin were sutured using 8-0 black silk thread. Sham group (sham-operation group): the abdominal cavity of each mouse in the Sham group was opened to transplant fat fragments, and the rest of the steps were the same.
After 4 weeks of modelmg, a second laparotomy was performed, and the ectopic lesion volume (V1) was measured using a vernier caliper and calculated to determine the success of the modeling. Twelve mice with relatively uniform V1 were selected and divided into 2 groups with 6 nice in each group: Vehicle (vehicle control group) and drug group.
Sham group (sham-operation group, 6 animals): normal feeding; Vehicle group (vehicle control group, 6 animals); vehicle was intragastrically administered once a day for 8 consecutive weeks. […]
After 8 weeks of administration, samples were obtained from the mice: the ectopic lesion volume (V2) was measured using a vernier caliper and calculated. The inhibition rate was calculated using a calculation formula of: ectopic lesion volume V=π/6×length×width×height, wherein length represents the length of an ectopic lesion, width represents the width of an ectopic lesion, and height represents the height of an ectopic lesion;

[3] = Pharmacokinetic evaluation in mice (plasma); assay type: in vivo; settings: mouse, male CD-1 mice
Protocol: Objective of assay: To study the in vivo pharmacokinetic properties of the compound of the present disclosure in mice.
Each assay compound was mixed with DMAC respectively, and vortexed for 2 minutes. The solution of the assay compound in DMAC was mixed and vortexed for 2 minutes to prepare a clear solution of 10 mg/mL. 0.0600 mL of 10 mg/mL solution was added to 0.300 mL of Solutol, and the mixture was vortexed for 2 minutes. Then 2.400 mL of normal saline was added, and the mixture was vortexed for 2 minutes to obtain a clear solution of 0.2 mg/mL, which was used for administration in PO group, 0.500 mL of the solution for administration in PO group was vortexed for 2 minutes, and 0.0500 mL of DMAC was added. The mixture was vortexed for 2 minutes, and then 0.0500 mL of solutol was added. The mixture was vortexed for 2 minutes, and finally 0.400 mL of normal saline was added. The mixture was vortexed for two minutes to give a clear solution of 0.1 mg/mL, which was filtered through a microporous membrane to give a solution for administration in injection (IV) group.
Four male CD-1 mice were divided into two groups. The animals in the first group were administered intravenously once at a dose of 0.5 mg/kg, wherein the vehicle was 10% DMAC/10% Solutol/80% normal saline, and the administration volume was 5 mL/kg. The animals in the second group were administered orally 2 mg/kg of the assay compound by oral gavage, wherein the oral vehicle was 10% DMAC/10% Solutol/80% normal saline, and the oral volume was 10 mL/kg. Whole blood was collected at 0.033 (IV injection only), 0.083, 0.25, 0.5, 1, 2, 4 and 12 hours post-dose. The whole blood was centrifuged at 3200 g at 2-8° C. for 10 min to obtain plasma. The concentration of the assay compound in plasma was determined by ILC/MS/MS method, and the pharmacokinetic parameters were calculated by Phoenix WinNonlin software.
The parameters have the following meanings: IV: intravenous injection; PO: oral administration; C0: initial plasma drug concentration; Cmax: maximum drug concentration in systemic circulation; Tmax: time required to reach Cmax; T1/2: half-life; Vdss: apparent volume of distribution; Cl: clearance rate; AUC0-last: area under the drug-time curve.

human gonadotropin-releasing hormone receptor, sequence (P30968 whole entry): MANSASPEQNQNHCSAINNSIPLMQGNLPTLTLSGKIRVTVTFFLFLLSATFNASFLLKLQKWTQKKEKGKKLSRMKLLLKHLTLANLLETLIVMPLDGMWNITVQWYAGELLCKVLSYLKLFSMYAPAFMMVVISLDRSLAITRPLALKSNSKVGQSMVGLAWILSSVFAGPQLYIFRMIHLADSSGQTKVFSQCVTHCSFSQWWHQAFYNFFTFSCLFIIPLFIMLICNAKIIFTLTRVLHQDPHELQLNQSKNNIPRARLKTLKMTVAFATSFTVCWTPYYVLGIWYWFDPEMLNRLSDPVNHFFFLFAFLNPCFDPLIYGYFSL

**Q.** What does the source list for `O=C(O)c1scc2[nH]c(=O)n(-c3cc4c(cc3F)OCCCOc3ccc(F)c(F)c3CO4)c(=O)c12` [Compound 1]?
**A.** IC50 [1]: 3.2 nM; Volume of endometriotic lesion in mice V1 ([2]; Mean ± SD, n = 6, 4 weeks after modeling, before administration (baseline)): 9.89 ± 1.51 mm^3; Volume of endometriotic lesion in mice V2 ([2]; Mean ± SD, n = 6, after 8 weeks of 100 mpk intragastric once daily): 6.78 ± 4.46 mm^3; Inhibition rate ([2]; ectopic lesion volume, 100 mpk intragastric once daily for 8 weeks): 107.5%; AUC(0-t) ([3]; IV 0.5 mg/kg): 48.3 µM·h; C0 ([3]; IV 0.5 mg/kg): 13.5 µM; clearance ([3]; IV 0.5 mg/kg): 0.332 mL/min/kg; half-life ([3]; IV 0.5 mg/kg): 5.66 h; Vd ([3]; IV 0.5 mg/kg, read-out: Vdss): 0.159 L/kg; bioavailability ([3]; PO 2 mg/kg vs IV 0.5 mg/kg): 95.3%; AUC(0-t) ([3]; PO 2 mg/kg): 143 µM·h; Cmax ([3]; PO 2 mg/kg): 25.8 µM; Tmax ([3]; PO 2 mg/kg): 0.5 h; half-life ([3]; PO 2 mg/kg): 5.03 h
